Each compound was assayed against T1, Human PPARα (Homo sapiens, UniProt Q07869) (assay: Human PPARα Reporter Assay (luciferase)). Details: human PPARα reporter cells, overnight incubation, antagonism; read-out: Luciferase IC50.
T1 construct: host or cells: proprietary non-human mammalian cells
T1 sequence (Q07869 1-468): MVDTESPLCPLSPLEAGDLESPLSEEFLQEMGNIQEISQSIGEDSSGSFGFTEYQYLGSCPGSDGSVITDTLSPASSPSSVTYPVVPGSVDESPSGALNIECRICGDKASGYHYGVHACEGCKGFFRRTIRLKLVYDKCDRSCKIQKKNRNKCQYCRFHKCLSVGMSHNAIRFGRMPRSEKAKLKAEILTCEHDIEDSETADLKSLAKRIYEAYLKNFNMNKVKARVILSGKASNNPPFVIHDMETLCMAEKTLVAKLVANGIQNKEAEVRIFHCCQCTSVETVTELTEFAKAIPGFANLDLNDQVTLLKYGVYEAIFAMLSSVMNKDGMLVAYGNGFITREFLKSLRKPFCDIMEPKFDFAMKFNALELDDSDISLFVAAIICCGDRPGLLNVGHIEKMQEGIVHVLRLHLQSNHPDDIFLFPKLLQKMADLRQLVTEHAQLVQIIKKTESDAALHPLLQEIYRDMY
Format: cell-based
Outline: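 Non-human mammalian cells constitutively expressing human PPARα with a PPARα-responsive luciferase reporter were dosed with compounds right after plating. After overnight incubation, media removed and detection reagent added; luminescence taken as proportional to PPARα activation, agonist or antagonist mode.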

| SMILES | IC50 [nM] |
| --- | --- |
| CCn1c(CCCc2ccc(-c3ccc(NC(=O)NS(=O)(=O)c4ccccc4)cn3)cc2)nn(Cc2ccc(C(C)(C)C)cc2)c1=O [Example 160, N-((6-(4-(3-(1-(4-(tert-Butyl)benzyl)-4-ethyl-5-oxo-4,5-dihydro-1H-1,2,4-triazol-3-yl)propyl)phenyl)pyridin-3-yl)carbamoyl)benzenesulfonamide] | 429 |
| CCn1c(CCCc2ccc(-c3cccc(CC(=O)O)c3)cc2)nn(Cc2ccc(C(C)(C)C)cc2)c1=O [Example 1, 2-(4′-(3-(1-(4-(tert-Butyl)benzyl)-4-ethyl-5-oxo-4,5-dihydro-1H-1,2,4-triazol-3-yl)propyl)-[1,1′-biphenyl]-3-yl)acetic acid] | 95 |
| CCn1c(CCCc2ccc(-c3ccc(C)c(C(=O)O)c3)cc2)nn(Cc2ccc(C(C)(C)C)cc2)c1=O [Example 132, 4′-(3-(1-(4-(tert-Butyl)benzyl)-4-ethyl-5-oxo-4,5-dihydro-1H-1,2,4-triazol-3-yl)propyl)-4-methyl-[1,1′-biphenyl]-3-carboxylic acid] | 12 |
| CCC(C(=O)O)c1cccc(-c2ccc(CCCc3nn(Cc4ccc(C(C)(C)C)cc4)c(=O)n3CC)cc2)c1 (centres unmarked) [Example 46, 2-(3-{4-[3-(1-{[4-(tert-Butyl)phenyl]methyl}-4-ethyl-5-oxo-1,2,4-triazolin-3-yl)propyl]phenyl}phenyl)butanoic acid] | 699 |
| CCn1c(CCCc2ccc(-c3nccc(NS(=O)(=O)c4ccccc4)n3)cc2)nn(Cc2ccc(C(C)(C)C)cc2)c1=O [Example 81, N-(2-(4-(3-(1-(4-(tert-Butyl)benzyl)-4-ethyl-5-oxo-4,5-dihydro-1H-1,2,4-triazol-3-yl)propyl)phenyl)pyrimidin-4-yl)benzenesulfonamide] | 127 |
| CCn1c(CCCc2ccc(-c3ccc(OC)c(N(C)S(=O)(=O)c4ccccc4)n3)cc2)nn(Cc2ccc(C(C)(C)C)cc2)c1=O [Example 110, 1-{[4-(tert-Butyl)phenyl]methyl}-4-ethyl-3-[3-(4-{5-methoxy-6-[N-methyl(phenylsulfonyl)amino](2-pyridyl)}phenyl)propyl]-1,2,4-triazolin-5-one] | 534 |
| CCn1c(CCCc2ccc(-c3cccc(CC(=O)O)c3)cc2)nn(Cc2ccc(C(C)(C)C)c(C)c2)c1=O [Example 115, 2-(4′-(3-(1-(3-Methyl-4-(tert-butyl)benzyl)-4-ethyl-5-oxo-4,5-dihydro-1H-1,2,4-triazol-3-yl)propyl)-[1,1′-biphenyl]-3-yl) acetic acid] | 116 |
| CCn1c(CCCc2ccc(-c3cc(C(F)(F)F)cc(CC(=O)O)n3)cc2)nn(Cc2ccc(C(C)(C)C)cc2)c1=O [Example 48, 2-(6-{4-[3-(1-{[4-(tert-Butyl)phenyl]methyl}-4-ethyl-5-oxo(1,2,4-triazolin-3-yl))propyl]phenyl}-4-(trifluoromethyl)-2-pyridyl)acetic acid] | 426 |
| CCn1c(CCCc2ccc(-c3cccc(C(=O)NS(=O)(=O)c4ccccc4)c3)cc2)nn(Cc2ccc(C(C)(C)C)cc2)c1=O [Example 9, 4′-(3-(1-(4-(tert-Butyl)benzyl)-4-ethyl-5-oxo-4,5-dihydro-1H-1,2,4-triazol-3-yl)propyl)-N-(phenylsulfonyl)-[1,1′-biphenyl]-3-carboxamide] | 363 |
| CCn1c(CCCc2ccc(-c3ccc(OC)c(CNC)c3)cc2)nn(Cc2ccc(C(C)(C)C)cc2)c1=O [Example 180, 1-{[4-(tert-Butyl)phenyl]methyl}-4-ethyl-3-[3-(4-{4-methoxy-3-[(methylamino)methyl]phenyl}phenyl)propyl]-1,2,4-triazolin-5-one] | 640 |
| CCn1c(CCCc2ccc(-c3ccc(N)cn3)cc2)nn(Cc2ccc(C(C)(C)C)cc2)c1=O [Example 5, 3-(3-(4-(5-Aminopyridin-2-yl)phenyl)propyl)-1-(4-(tert-butyl)benzyl)-4-ethyl-1H-1,2,4-triazol-5(4H)-one] | 43 |
| CC(C)(C)c1ccc(Cn2nc(CCCc3ccc(-c4cccc(CC(=O)O)c4)cc3)n(-c3ccccc3)c2=O)cc1 [Example 32, 2-(4′-(3-(1-(4-(tert-Butyl)benzyl)-5-oxo-4-phenyl-4,5-dihydro-1H-1,2,4-triazol-3-yl)propyl)-[1,1′-biphenyl]-3-yl)acetic acid] | 2990 |
| CCn1c(CCCc2ccc(-c3cc(C)c(NS(=O)(=O)Cc4ccccc4)cn3)cc2)nn(Cc2ccc(C(C)(C)C)cc2)c1=O [Example 127, 1-{[4-(tert-Butyl)phenyl]methyl}-4-ethyl-3-{3-[4-(4-methyl-5-{[benzylsulfonyl]amino}(2-pyridyl))phenyl]propyl}-1,2,4-triazolin-5-one] | 445 |
| CCn1c(CCCc2ccc(-c3ccc4c(c3)C(C(=O)O)CO4)cc2)nn(Cc2ccc(C(C)(C)C)cc2)c1=O (racemic) [Example 96, (rac)-5-(4-(3-(1-(4-(tert-Butyl)benzyl)-4-ethyl-5-oxo-4,5-dihydro-1H-1,2,4-triazol-3-yl)propyl)phenyl)-2,3-dihydrobenzofuran-3-carboxylic acid] | 272 |
| CCn1c(CCCc2ccc(-c3ccc(OC)c(NS(=O)(=O)c4ccc(OC)cc4)n3)cc2)nn(Cc2ccc(C(C)(C)C)cc2)c1=O [Example 93, 1-{[4-(tert-Butyl)phenyl]methyl}-4-ethyl-3-{3-[4-(5-methoxy-6-{[(4-methoxyphenyl)sulfonyl]amino}(2-pyridyl))phenyl]propyl}-1,2,4-triazolin-5-one] | 3 |
| CCn1c(CCCc2ccc(-c3ccc(OC)c(NS(=O)(=O)c4ccc(Cl)cc4)n3)cc2)nn(Cc2ccc(C(C)(C)C)cc2)c1=O [Example 92, 1-{[4-(tert-Butyl)phenyl]methyl}-3-{3-[4-(6-{[(4-chlorophenyl)sulfonyl]amino}-5-methoxy(2-pyridyl))phenyl]propyl}-4-ethyl-1,2,4-triazolin-5-one] | 5 |
| CCn1c(CCCc2ccc(-c3cc(CC(=O)O)ccc3F)cc2)nn(Cc2ccc(C(C)(C)C)cc2)c1=O [Example 19, 2-(4′-(3-(1-(4-(tert-Butyl)benzyl)-4-ethyl-5-oxo-4,5-dihydro-1H-1,2,4-triazol-3-yl)propyl)-6-fluoro-[1,1′-biphenyl]-3-yl)acetic acid] | 796 |
| CCn1c(CCCc2ccc(-c3csc(CC(=O)O)c3)cc2)nn(Cc2ccc(C(C)(C)C)cc2)c1=O [Example 39, 2-(4-(4-(3-(1-(4-(tert-Butyl)benzyl)-4-ethyl-5-oxo-4,5-dihydro-1H-1,2,4-triazol-3-yl)propyl)phenyl)thiophen-2-yl)acetic acid] | 707 |
| CCCn1c(CCCc2ccc(-c3ccc(OCC)c(CC(=O)O)c3)cc2)nn(Cc2ccc(C(C)(C)C)cc2)c1=O [Example 68, 2-(4′-(3-(1-(4-(tert-Butyl)benzyl)-5-oxo-4-propyl-4,5-dihydro-1H-1,2,4-triazol-3-yl)propyl)-4-ethoxy-[1,1′-biphenyl]-3-yl)acetic acid] | 32 |
| CCCCn1c(CCCc2ccc(-c3ccc(OCC)c(CC(=O)O)c3)cc2)nn(Cc2ccc(C(C)(C)C)cc2)c1=O [Example 69, 2-(4′-(3-(4-Butyl-1-(4-(tert-butyl)benzyl)-5-oxo-4,5-dihydro-1H-1,2,4-triazol-3-yl)propyl)-4-ethoxy-[1,1′-biphenyl]-3-yl)acetic acid] | 24 |
| CCn1c(CCCc2ccc(-c3ccc(OC)c(C(=O)O)c3)cc2)nn(Cc2ccc(C(C)(C)C)cc2)c1=O [Example 65, 4′-(3-(1-(4-(tert-Butyl)benzyl)-4-ethyl-5-oxo-4,5-dihydro-1H-1,2,4-triazol-3-yl)propyl)-4-methoxy-[1,1′-biphenyl]-3-carboxylic acid] | 6 |
| CCn1c(CC2CC2c2ccc(-c3cccc(CC(=O)O)c3)cc2)nn(Cc2ccc(C(C)(C)C)cc2)c1=O (centres unmarked) [Example 30, 2-(4′-(2-((1-(4-(tert-butyl)benzyl)-4-ethyl-5-oxo-4,5-dihydro-1H-1,2,4-triazol-3-yl)methyl)cyclopropyl)-[1,1′-biphenyl]-3-yl)acetic acid] | 1280 |
| CCn1c(CCCc2ccc(-c3ccc(OC)c(CC(=O)O)c3)cn2)nn(Cc2ccc(C(C)(C)C)cc2)c1=O [Example 198, 2-(5-(6-(3-(1-(4-(tert-Butyl)benzyl)-4-ethyl-5-oxo-4,5-dihydro-1H-1,2,4-triazol-3-yl)propyl)pyridin-3-yl)-2-methoxyphenyl)acetic acid] | 623 |
| CCn1c(CCCc2ccc(-c3cccc(-c4nnn[nH]4)c3)cc2)nn(Cc2ccc(C(C)(C)C)cc2)c1=O [Example 29, 3-(3-(3′-(1H-Tetrazol-5-yl)-[1,1′-biphenyl]-4-yl)propyl)-1-(4-(tert-butyl)benzyl)-4-ethyl-1H-1,2,4-triazol-5(4H)-one] | 1190 |
| CCOc1ccc(-c2ccc(CCCc3nn(Cc4ccc(C(C)(C)C)cc4)c(=O)n3C)cc2)cc1CC(=O)O [Example 95, 2-(4′-(3-(1-(4-(tert-Butyl)benzyl)-4-methyl-5-oxo-4,5-dihydro-1H-1,2,4-triazol-3-yl)propyl)-4-ethoxy-[1,1′-biphenyl]-3-yl)acetic acid] | 15 |
| CCn1c(CCCc2ccc(-c3cc(C)c(NS(=O)(=O)c4ccccc4)cn3)cc2)nn(Cc2ccc(C(C)(C)C)cc2)c1=O [Example 126, 1-{[4-(tert-Butyl)phenyl]methyl}-4-ethyl-3-[3-(4-{4-methyl-5-[(phenylsulfonyl)amino](2-pyridyl)}phenyl)propyl]-1,2,4-triazolin-5-one] | 201 |
